# Laboratory results reported in publication PMC5544727, “The type IV pilus assembly ATPase PilB functions as a signaling protein to regulate exopolysaccharide production in Myxococcus xanthus” (Scientific Reports, 2017).
# Residue numbers refer to the chain shown, from its start.
# Key:
# Type in all cases: binding
# [1] = molecular target: T1, PilB^WT (T. thermophilus PilB/PilF, TtPilB) (Thermus thermophilus, UniProt Q72H73); assay: DSF thermal stabilization, […] ligand (no Kd)
# [2] = molecular target: T2, PilB^WB (T. thermophilus PilB/PilF, TtPilB) (Thermus thermophilus, UniProt Q5SLC9, E718A); assay: DSF thermal stabilization, […] ligand (no Kd)
# T2 sequence (Q5SLC9 1-889 E718A): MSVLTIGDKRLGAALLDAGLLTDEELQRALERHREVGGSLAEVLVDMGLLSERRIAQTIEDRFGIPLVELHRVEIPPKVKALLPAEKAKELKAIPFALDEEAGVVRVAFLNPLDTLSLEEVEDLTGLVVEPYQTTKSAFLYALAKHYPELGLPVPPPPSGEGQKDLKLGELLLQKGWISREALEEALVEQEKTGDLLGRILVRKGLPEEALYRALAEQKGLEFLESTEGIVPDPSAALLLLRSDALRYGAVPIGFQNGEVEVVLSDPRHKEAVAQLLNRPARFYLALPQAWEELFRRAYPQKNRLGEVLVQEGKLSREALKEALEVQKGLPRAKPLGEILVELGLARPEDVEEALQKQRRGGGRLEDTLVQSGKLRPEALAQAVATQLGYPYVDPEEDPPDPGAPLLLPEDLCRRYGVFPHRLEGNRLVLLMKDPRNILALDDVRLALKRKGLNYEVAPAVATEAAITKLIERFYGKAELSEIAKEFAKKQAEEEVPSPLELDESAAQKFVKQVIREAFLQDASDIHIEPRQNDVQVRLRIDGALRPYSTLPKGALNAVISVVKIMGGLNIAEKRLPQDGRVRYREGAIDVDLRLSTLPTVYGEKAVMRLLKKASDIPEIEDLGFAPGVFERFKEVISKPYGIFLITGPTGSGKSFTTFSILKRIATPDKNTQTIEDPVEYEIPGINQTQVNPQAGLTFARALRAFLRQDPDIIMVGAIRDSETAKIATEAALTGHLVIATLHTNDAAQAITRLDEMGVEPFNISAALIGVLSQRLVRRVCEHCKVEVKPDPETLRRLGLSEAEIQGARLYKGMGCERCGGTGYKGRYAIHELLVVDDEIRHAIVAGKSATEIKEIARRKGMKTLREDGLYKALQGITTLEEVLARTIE
# [3] = molecular target: T1, PilB^WT (T. thermophilus PilB/PilF, TtPilB); assay: near-UV CD spectral shift, […] ligand
# [4] = molecular target: T2, PilB^WB (T. thermophilus PilB/PilF, TtPilB); assay: near-UV CD spectral shift, […] ligand
# [5] = molecular target: T3, PilB^WA (T. thermophilus PilB/PilF, TtPilB) (Thermus thermophilus, UniProt Q5SLC9, K654A); assay: near-UV CD spectral shift (less pronounced than WT), […] ligand
# T3 sequence (Q5SLC9 1-889 K654A): T2 sequence (Q5SLC9 1-889 E718A) with K654A, A718E
# [6] = molecular target: T3, PilB^WA (T. thermophilus PilB/PilF, TtPilB); assay: fluorescence titration of MANT-ATP with purified protein
# [7] = molecular target: T1, PilB^WT (T. thermophilus PilB/PilF, TtPilB); assay: as above
# [8] = molecular target: T2, PilB^WB (T. thermophilus PilB/PilF, TtPilB); assay: as above
# T1 sequence (Q72H73 entry or part of it): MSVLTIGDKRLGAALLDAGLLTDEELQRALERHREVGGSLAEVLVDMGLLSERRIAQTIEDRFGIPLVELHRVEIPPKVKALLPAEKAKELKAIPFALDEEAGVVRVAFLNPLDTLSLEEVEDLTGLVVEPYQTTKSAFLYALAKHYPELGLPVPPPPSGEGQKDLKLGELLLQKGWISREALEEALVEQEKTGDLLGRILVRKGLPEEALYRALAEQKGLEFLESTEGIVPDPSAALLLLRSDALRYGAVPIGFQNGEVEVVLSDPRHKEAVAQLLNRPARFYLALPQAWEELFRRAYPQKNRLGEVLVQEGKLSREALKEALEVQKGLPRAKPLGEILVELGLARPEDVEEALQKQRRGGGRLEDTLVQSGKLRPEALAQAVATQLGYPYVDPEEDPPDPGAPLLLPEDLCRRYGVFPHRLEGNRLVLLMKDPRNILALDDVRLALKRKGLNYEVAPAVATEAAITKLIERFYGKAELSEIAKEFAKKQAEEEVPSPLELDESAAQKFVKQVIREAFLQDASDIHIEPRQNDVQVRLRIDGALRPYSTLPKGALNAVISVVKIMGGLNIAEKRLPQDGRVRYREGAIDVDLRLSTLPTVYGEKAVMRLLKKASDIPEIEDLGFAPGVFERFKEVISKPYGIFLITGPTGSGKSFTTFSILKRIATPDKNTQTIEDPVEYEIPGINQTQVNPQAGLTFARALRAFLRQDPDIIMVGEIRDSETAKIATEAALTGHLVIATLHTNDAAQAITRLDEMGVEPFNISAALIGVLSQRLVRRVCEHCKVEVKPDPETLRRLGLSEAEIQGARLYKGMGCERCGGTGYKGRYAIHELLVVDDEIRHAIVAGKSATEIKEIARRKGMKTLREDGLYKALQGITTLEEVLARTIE
structure (smiles),measurement,setting,value
"Nc1ncnc2c1ncn2[C@@H]1O[C@H](CO[P@](=O)(O)O[P@](=O)(O)NP(=O)(O)O)[C@@H](O)[C@H]1O [AMP-PNP, adenosine 5′-(β,γ-imido)triphosphate]","DSF thermal stabilization, 0.4 mM ligand (no Kd)",[1],"This nucleotide stabilized both PilB^WT and PilB^WB, resulting in the disappearance of the first unfolding transition"
same,"DSF thermal stabilization, 0.4 mM ligand (no Kd)",[2],"This nucleotide stabilized both PilB^WT and PilB^WB, resulting in the disappearance of the first unfolding transition"
Nc1ncnc2c1ncn2[C@@H]1O[C@H](COP(=O)(O)OP(=O)(O)O)[C@@H](O)[C@H]1O [ADP],"near-UV CD spectral shift, 0.1 mM ligand",[3],"The addition of ADP also shifted the spectra of PilB^WT and PilB^WB, but not that of PilB^WA"
same,"near-UV CD spectral shift, 0.1 mM ligand",[4],"The addition of ADP also shifted the spectra of PilB^WT and PilB^WB, but not that of PilB^WA"
Nc1ncnc2c1ncn2[C@@H]1O[C@H](COP(=O)(O)OP(=O)(O)OP(=O)(O)O)[C@@H](O)[C@H]1O [ATP],"near-UV CD spectral shift (less pronounced than WT), 0.1 mM ligand",[5],the shift for PilB^WA is less pronounced compared to those seen for the other two
"CNc1ccccc1C(=O)O[C@H]1[C@@H](O)[C@H](n2cnc3c(N)ncnc32)O[C@@H]1CO[P@@](=O)(O)O[P@](=O)(O)OP(=O)(O)O (mixture of isomers) [MANT-ATP, 2′-/3′-O-(N-methylanthraniloyl) adenosine-5′-triphosphate]",Kd,[6],1230 nM
same,Kd,[7],170 nM
same,Kd,[8],190 nM
